Reference: patent US4006226A, “Anticonvulsant diphenylsilanes” (priority 1976, dated 1977)

Columns and labels:
maximal electroshock [1] = experiment: Modified maximal electroshock test (100 Hz, 0.1 sec., 150 volt) of hydrolyzable silanes, oral; format: in vivo, male Carworth mice; details: for ED50: Mus musculus, read-out: Maximal Electroshock ED50 (95% C.I.); for ED50 / Maximal Electroshock ED50 (95% C.I.): sesame oil; for anticonvulsant activity (in words): maximal electroshock
Experimental: (§1) The modified (100 Hz, 0.1 sec., 150 volt) maximal electroshock test was used to determine the anticonvulsant activity of several hydrolyzable silanes. Male Carworth mice were used as the test animal. All of the compounds were administered orally in a sesame oil carrier. […] The effective amount (ED50) for the compounds at three different time intervals after dosing was determined as previously described.

[2] = LD50, single dose in sesame oil, 14 days observation; design: species or system male Carworth mice; details: mouse, in vivo, po, dead after 14 days
Experimental: as §1
The LD50 of certain silanes was determined by administering a single dose of the silane in sesame oil to groups of the male mice.

[3] = tested on: tonic extension of the hind limbs; experiment: Electroshock test (60 Hz A.C., 0.2 second, 50 milliamp), i.p. dosing; format: in vivo, mice (female Swiss Webster)
Experimental: The electroshock test procedure was used to determine anticonvulsant activity of diphenylsilanediol. Adult female mice (Swiss Webster strain) were utilized as test animals. […] Seizure protection was scored as inhibition of tonic extension. Groups of mice (six/group) were dosed interperitonially with varying amounts of diphenylsilanediol in a 0.5% methylcellulose solution in distilled water. The dosages ranged from 10 to 100 mg./kg. and the electroshock was applied 30 minutes after dosing.
(§2) (ED99) to be 30 minutes after dosing, the half time of the effect to be about four hours, with some measurable anticonvulsant activity being noted up to 10 hours. The toxicity (LD50) of this silane solution (as freshly prepared) in mice, administered i.p., was determined to be 2500 mg./kg.

[4] = Acute toxicity (LD50), i.p.; details: mouse, in vivo, ip, mice, freshly prepared solution
Experimental: as §2

maximal electroshock [5] = experiment: Modified maximal electroshock (100 Hz, 0.1 second, 150 volts), intravenous dosing; format: in vivo, mice
Experimental: (§3) Mice were also dosed with a similar solution of diphenylsilanediol but by intravenous administration. The ED50 was determined to be 10 mg./kg. with a 5 minute peak time by a modified maximal electroshock technique in which stimulus was delivered at 100 Hz for 0.1 second at 150 volts.

maximal electroshock [6] = experiment: Modified maximal electroshock, oral dosing via gastric intubation in sesame oil; format: in vivo, mice; details: Mus musculus
Experimental: as §3
Oral dosing of mice via gastric intubation with the diphenylsilanediol suspended in sesame oil solution was also performed. Maximal electroshock (modified as described above) was again used to determine the amount necessary to provide an effective dose (ED50) at various time intervals after dosing.

[7] = tested on: Pentylenetetrazol-induced clonic seizures; experiment: Pentylenetetrazol-induced seizure test (Swinyard's method); format: in vivo, mice (female Swiss Webster); details: Mus musculus, ip, 0.5 h; i.p., 30 minutes before pentylenetetrazol; absence of clonic seizures
Experimental: (§4) Diphenylsilanediol was also tested to determine its effectiveness against chemically-induced seizures. Pentylenetetrazol and strychnine were the convulsant compounds used. Pentylenetetrazol testing was performed in accordance with Swinyard's method as described in J. Am. Pharm. Assoc. 38:201, 1949, while styrchnine tests were made by the method of Everett and Richards as described in J. Pharm. Exp. Ther. 81:402, 1944.
(§5) The silane (in 0.5% aqueous methylcellulose) was administered i.p. to groups of 6 mice (female Swiss Webster) at doses of 10, 30, 100 and 300 mg./kg. The silane solution was administered 30 minutes before injection with one of the convulsant drugs. The end point for scoring effectiveness was the absence of clonic seizures during the 30 minute period subsequent to administration of the convulsant -- this same criterion was utilized in conducting the strychnine tests. In both tests, effective amounts (ED50) of the silane were equivalent with the pentylenetetrazol-induced convulsion requiring 58 mg./kg. and the styrchnine tests showing 60 mg./kg. as the ED50.

[8] = tested on: strychnine-induced seizures; experiment: Strychnine-induced seizure test (method of Everett and Richards); format: in vivo, mice (female Swiss Webster); details: Mus musculus, ip, 0.5 h
Experimental: as §4, §5

[9] = tested on: idiopathic epilepsy, grand mal seizures of the clonic type; experiment: Control of seizures in a dog with idiopathic epilepsy; format: in vivo, dog (German Shepard)
Experimental: A young adult dog (German Shepard) was diagnosed as having idiopathic epilepsy after having grand mal seizures of the clonic type.
After five days of dosing, the same amount was administered orally in 250 mg. capsules for a period of 10 days.

[10] = after cessation of 10 mg./kg. oral dose twice daily
[11] = after discontinuation of 500 mg. regimen

Row | SMILES | ED50 (maximal electroshock [1]; 2 hrs. after dosing) [mg/kg] | ED50 (maximal electroshock [1]; 4 hrs. after dosing) [mg/kg] | ED50 (maximal electroshock [1]; 6 hrs. after dosing) [mg/kg] | LD50 at 336 h [2] [mg/kg] | further results
1 | c1ccc([SiH2]c2ccccc2)cc1 [.phi.2 SiH2] | 28 | 25 | 28 | 924 | –
2 | O[Si](O)(c1ccccc1)c1ccccc1 [.phi.2 Si(ONa)2] | 37 | 61 | 90 | – | –
3 | CC(=O)O[Si](OC(C)=O)(c1ccccc1)c1ccccc1 | 43 | 11 | 50 | – | –
4 | O[Si](O)(c1ccccc1)c1ccccc1 [diphenylsilanediol] | – | – | – | – | half time of the effect ([3]; 25 mg./kg. (ED99)): about four; peak time of the anticonvulsant effect ([3]; 25 mg./kg. (ED99)): 30 min; some measurable anticonvulsant activity noted up to ([3]; 25 mg./kg. (ED99)): up to 10 hours; ED99 ([3]; Mus musculus, ip, 0.5 h): 25 mg/kg; ED50 ([3]; Mus musculus, ip, 0.5 h, 0.5% methylcellulose, electroshock 30 minutes after dosing, read-out: effective dose to prevent convulsions in half the animals (ED50)): 20 mg/kg; LD50 [4]: 2500 mg/kg; peak time (maximal electroshock [5]): 5 min; ED50 (maximal electroshock [5]; Mus musculus, 5 min): 10 mg/kg; ED50 (maximal electroshock [6]; 2 hrs. after dosing): 25 mg/kg; ED50 (maximal electroshock [6]; 4 hrs. after dosing): 37 mg/kg; ED50 (maximal electroshock [6]; 6 hrs. after dosing): 60 mg/kg; ED50 [7]: 58 mg/kg; ED50 [8]: 60 mg/kg; control of seizures ([9]; 500 mg. intramuscularly twice per day): effective in controlling seizures; seizures during 15 day period ([9]; 500 mg. twice per day, 5 days intramuscular then 10 days oral (250 mg. capsules)): did not experience seizures; first seizure postdose [9, 10]: 30 h; interval of seizures after cessation [9, 10]: three; first seizure after the last dose [9, 11]: 39 h; interval of seizures after discontinuation [9, 11]: about four; elimination of seizures ([9]; one-half the previous dosage, 10 mg./kg. orally twice daily, 10 days): effective in eliminating seizures
5 | CO[Si](OC)(c1ccccc1)c1ccccc1 [.phi.2 Si(OCH3)2] | 39 | 26 | 52 | 1060 | –
6 | CCN(CC)CCO[Si](OCCN(CC)CC)(c1ccccc1)c1ccccc1 [.phi.2 Si[OCH2 CH2 N(C2 H5)2]2] | 52 | 84 | 168 | – | –
7 | CCO[Si](OCC)(c1ccccc1)c1ccccc1 [.phi.2 Si(OC2 H5)2] | 37 | 50 | 22 | 1720 | –
8 | N[Si](N)(c1ccccc1)c1ccccc1 [.phi.2 Si(NH2)2] | 56 | 68 | 100 | – | –
9 | O[Si](O[Si](O)(c1ccccc1)c1ccccc1)(c1ccccc1)c1ccccc1 [reference compound] | 1000 | 1000 | 1000 | – | anticonvulsant activity (in words) (maximal electroshock [1]): no anticonvulsant activity
10 | CCCCO[Si](OCCCC)(c1ccccc1)c1ccccc1 [.phi.2 Si(On-C4 H9)2, diphenyl-di-n-butoxysilane, reference compound] | – | 1000 | 1000 | 5300 | anticonvulsant activity (in words) (maximal electroshock [1]): no observed activity; Maximal Electroshock ED50 (95% C.I.) (maximal electroshock [1]; 2 hrs. after dosing): no protection
11 | CCCCS[Si](SCCCC)(c1ccccc1)c1ccccc1 [.phi.2 Si(SC4 H9)2] | 290 | 65 | 65 | – | –
12 | CCCO[Si](OCCC)(c1ccccc1)c1ccccc1 [.phi.2 Si(On-C3 H7)2] | – | 89 | 32 | 1000 | Maximal Electroshock ED50 (95% C.I.) (maximal electroshock [1]; 2 hrs. after dosing): no protection
13 | CCO[SiH](c1ccccc1)c1ccccc1 | 22 | 21 | 46 | – | –
14 | CN(C)[Si](c1ccccc1)(c1ccccc1)N(C)C [.phi.2 Si[N(CH3)2]2] | 50 | 50 | 56 | – | –
15 | CC(C)O[Si](OC(C)C)(c1ccccc1)c1ccccc1 [.phi.2 Si(Oi-C3 H7)2] | – | 99 | 66 | 990 | Maximal Electroshock ED50 (95% C.I.) (maximal electroshock [1]; 2 hrs. after dosing): no protection
16 | CN[Si](NC)(c1ccccc1)c1ccccc1 | 68 | 70 | 153 | – | –
